Literature values in patent US11224572B1, “Stable oral liquid composition of terazosin” (Novitium Pharma LLC, priority 2020, dated 2022).
Counter-ions that a name gives are not always drawn.

What was measured:
alpha-1 adrenoceptor [1] = test system: alpha-1 adrenoceptor
[2] = patients treated with terazosin
alpha-1 adrenoceptor [3] = conditions: in animals

In the case of COc1cc2nc(N3CCN(C(=O)C4CCCO4)CC3)nc(N)c2cc1OC (racemic) [terazosin, (RS)-Piperazine, 1-(4-amino-6,7-dimethoxy-2-quinazolinyl)-4-[(tetrahydro-2-furanyl)carbonyl]-, monohydrochloride], the “time within which blood pressure decreases following oral administration” value (alpha-1 adrenoceptor [1]) is listed as ≤ 15 min, the “patients experiencing an increase in urinary flow and improvement in symptoms of BPH” value [2] is listed as “approximately 70%” and the “effect on blood pressure” value (alpha-1 adrenoceptor [3]) is listed as “causes a decrease in blood pressure by decreasing total peripheral vascular resistance”.
